Earlier results on 1 molecule are cited in patent publication US8309133B2, “Nanoparticulate quinazoline derivative formulations” (Alkermes Pharma Ireland Limited, priority 2005, dated 2012).

Like-named read-outs stand apart in the source and are kept apart here.

For data set [1] the following is noted: water at 37° C.
The conditions of data set [2]: oral tablet.

For the molecule `C#Cc1cccc(Nc2ncnc3cc(OCCOC)c(OCCOC)cc23)c1.Cl` [erlotinib HCl, N-(3-ethynylphenyl)-6,7-bis(2-methoxyethoxy)-4-quinazolinamine], the Solubility in water entry in data set [1] was “very slightly soluble”. The Absorption in data set [2] (administered with food) was 100%; in data set [2] (without food) it was 60%.
